Experiments:
Assay type in all cases: in vivo
Williams 82 soybean = test: Heat stress tolerance in soybean following ACC application; details: heat stress 34/30° C. six days; for Canopy Density / Fresh Weight / Height / Total Dry Weight / Δ Canopy Density: n = 5; for Canopy Density, percent increase over stress control / Fresh Weight, percent increase over stress control / Height, percent increase over stress control / Total Dry Weight, percent increase over stress control / Δ Canopy Density, percent increase over stress control: vs stress control; for Canopy Density, percent increase over treatment control / Fresh Weight, percent increase over treatment control / Height, percent increase over treatment control / Total Dry Weight, percent increase over treatment control / Δ Canopy Density, percent increase over treatment control: vs treatment control
Protocol: Williams 82 soybean was seeded into ProMix BX (Premier Horticulture) and grown in a greenhouse. […] Next, spray applications of […] (n=5) were made using a track sprayer on Oct. 9, 2020. Following spraying, plants were moved to a growth cabinet under the following conditions: 24/18 C day night temperatures under a 16/8 light dark period. Next, 3 days following treatment, half of the plants were transferred to a second growth cabinet at 34/30° C. day/night temperature under a 16/8-hour light/dark photoperiod for six days. These conditions constitute early season heat stress. Plants were then destructively harvested and measured for fresh weight, canopy density, Δ canopy density, total dry weight and height.

Apogee wheat [1] = test: Heat stress tolerance in wheat following ACC application at Feekes stage 5 (Example 2); details: heat stress 34/28° C. 4 days
Protocol: Apogee wheat was seeded into ProMix BX (Premier Horticulture) and grown in a growth cabinet under the following conditions: 24/18° C. day/night temperature under a 16/8 hour light/dark photoperiod. Plants were evaluated at Feekes stage 5 following the first set of growth conditions on Nov. 15, 2019. Next, spray applications of 0, 0 or 100 ppm ACC (n=8) were made using a track sprayer. Next, 2 days following treatment, one set of control plants (“treatment control”) and the 100 ppm ACC plants were transferred to a second growth cabinet at 34/28° C. day/night temperature under a 16/8-hour light/dark photoperiod for 4 days. These conditions constitute significant heat stress. The other set of control plants (“stress control”) remained in the first growth cabinet. Finally, the plants were then returned to the first growth cabinet for about 14 days where plants reached Feekes stage 10.1 (head emergence). Plants were then destructively harvested and measured for total spike number, fresh weight, total reproductive tiller number, percent reproductive tillers, A canopy density and total dry weight. Percent reproductive tillers is calculated by dividing the number of reproductive tillers by the total number of spikes at harvest. A canopy density is calculated by subtracting the canopy density at treatment from the canopy density at harvest.

Apogee wheat [2] = test: Heat stress tolerance in wheat following ACC application at Feekes stage 5 (Example 3); details: heat stress 34/28° C. 4 days; for % Reproductive Tillers / Fresh Weight / Total Dry Weight / Total Spike Number / Total Tiller Number / Δ Canopy Density: n = 8; for % Reproductive Tillers, percent increase over stress control / Fresh Weight, percent increase over stress control / Total Dry Weight, percent increase over stress control / Total Spike Number, percent increase over stress control / Total Tiller Number, percent increase over stress control / Δ Canopy Density, percent increase over stress control: vs stress control (no heat); for % Reproductive Tillers, percent increase over treatment control / Fresh Weight, percent increase over treatment control / Total Dry Weight, percent increase over treatment control / Total Spike Number, percent increase over treatment control / Total Tiller Number, percent increase over treatment control / Δ Canopy Density, percent increase over treatment control: vs treatment control (heat, no ACC)
Protocol: Apogee wheat was seeded into ProMix BX (Premier Horticulture) and grown in a growth cabinet under the following conditions: 24/18° C. day/night temperature under a 16/8 hour light/dark photoperiod. Plants were at Feekes stage 5 following the first set of growth conditions. Next, spray applications of 0, 0, 100 or 300 ppm ACC (n=8) were made using a track sprayer on Oct. 4, 2019. […] These conditions constitute significant heat stress. The other set of control plants (“stress control”) remained in the first growth cabinet. Finally, the plants were then returned to the first growth cabinet for about 14 days where plants reached Feekes stage 10.1 (head emergence). Plants were then destructively harvested and measured for total spike number, fresh weight, total reproductive tiller number, percent reproductive tillers, A canopy density and total dry weight. Percent reproductive tillers is calculated by dividing the number of reproductive tillers by the total number of spikes at harvest. A canopy density is calculated by subtracting the canopy density at treatment from the canopy density at harvest.

[3] = 100 ppm ACC spray at Feekes stage 5, n = 8
[4] = 100 ppm ACC, vs stress control (no heat)
[5] = 100 ppm ACC, vs treatment control (heat, no ACC)
[6] = 100 ppm ACC spray at Feekes stage 5
[7] = 300 ppm ACC spray at Feekes stage 5

SMILES: NC1(C(=O)O)CC1 [ACC, 1-amino-1-cyclopropanecarboxylic acid]
- Canopy Density (Williams 82 soybean; 10 ppm ACC spray at V1): 13.24
- Fresh Weight (Williams 82 soybean; 10 ppm ACC spray at V1): 19.85 grams
- Height (Williams 82 soybean; 10 ppm ACC spray at V1): 41.07 cm
- Total Dry Weight (Williams 82 soybean; 10 ppm ACC spray at V1): 3.15 grams
- Δ Canopy Density (Williams 82 soybean; 10 ppm ACC spray at V1): 7.77
- Canopy Density, percent increase over stress control (Williams 82 soybean; 10 ppm ACC): (83.9%)
- Fresh Weight, percent increase over stress control (Williams 82 soybean; 10 ppm ACC): (32.8%)
- Height, percent increase over stress control (Williams 82 soybean; 10 ppm ACC): (30.1%)
- Total Dry Weight, percent increase over stress control (Williams 82 soybean; 10 ppm ACC): (18.9%)
- Δ Canopy Density, percent increase over stress control (Williams 82 soybean; 10 ppm ACC): (256.4%)
- Canopy Density, percent increase over treatment control (Williams 82 soybean; 10 ppm ACC): [13.6%]
- Fresh Weight, percent increase over treatment control (Williams 82 soybean; 10 ppm ACC): [6.5%]
- Height, percent increase over treatment control (Williams 82 soybean; 10 ppm ACC): [7.9%]
- Total Dry Weight, percent increase over treatment control (Williams 82 soybean; 10 ppm ACC): [6.8%]
- Δ Canopy Density, percent increase over treatment control (Williams 82 soybean; 10 ppm ACC): [22.4%]
- Canopy Density (Williams 82 soybean; 30 ppm ACC spray at V1): 12.68
- Fresh Weight (Williams 82 soybean; 30 ppm ACC spray at V1): 20.33 grams
- Height (Williams 82 soybean; 30 ppm ACC spray at V1): 38.25 cm
- Total Dry Weight (Williams 82 soybean; 30 ppm ACC spray at V1): 3.25 grams
- Δ Canopy Density (Williams 82 soybean; 30 ppm ACC spray at V1): 7.19
- Canopy Density, percent increase over stress control (Williams 82 soybean; 30 ppm ACC): (76.1%)
- Fresh Weight, percent increase over stress control (Williams 82 soybean; 30 ppm ACC): (36.0%)
- Height, percent increase over stress control (Williams 82 soybean; 30 ppm ACC): (21.1%)
- Total Dry Weight, percent increase over stress control (Williams 82 soybean; 30 ppm ACC): (22.6%)
- Δ Canopy Density, percent increase over stress control (Williams 82 soybean; 30 ppm ACC): (229.8%)
- Canopy Density, percent increase over treatment control (Williams 82 soybean; 30 ppm ACC): [8.7%]
- Fresh Weight, percent increase over treatment control (Williams 82 soybean; 30 ppm ACC): [9.1%]
- Height, percent increase over treatment control (Williams 82 soybean; 30 ppm ACC): [0.5%]
- Total Dry Weight, percent increase over treatment control (Williams 82 soybean; 30 ppm ACC): [10.2%]
- Δ Canopy Density, percent increase over treatment control (Williams 82 soybean; 30 ppm ACC): [13.2%]
- Canopy Density (Williams 82 soybean; 100 ppm ACC spray at V1): 10.90
- Fresh Weight (Williams 82 soybean; 100 ppm ACC spray at V1): 19.25 grams
- Height (Williams 82 soybean; 100 ppm ACC spray at V1): 37.95 cm
- Total Dry Weight (Williams 82 soybean; 100 ppm ACC spray at V1): 3.08 grams
- Δ Canopy Density (Williams 82 soybean; 100 ppm ACC spray at V1): 5.36
- Canopy Density, percent increase over stress control (Williams 82 soybean; 100 ppm ACC): (51.4%)
- Fresh Weight, percent increase over stress control (Williams 82 soybean; 100 ppm ACC): (28.8%)
- Height, percent increase over stress control (Williams 82 soybean; 100 ppm ACC): (20.2%)
- Total Dry Weight, percent increase over stress control (Williams 82 soybean; 100 ppm ACC): (16.2%)
- Δ Canopy Density, percent increase over stress control (Williams 82 soybean; 100 ppm ACC): (145.9%)
- Canopy Density, percent increase over treatment control (Williams 82 soybean; 100 ppm ACC): [−6.5%]
- Fresh Weight, percent increase over treatment control (Williams 82 soybean; 100 ppm ACC): [3.3%]
- Height, percent increase over treatment control (Williams 82 soybean; 100 ppm ACC): [−0.3%]
- Total Dry Weight, percent increase over treatment control (Williams 82 soybean; 100 ppm ACC): [4.4%]
- Δ Canopy Density, percent increase over treatment control (Williams 82 soybean; 100 ppm ACC): [−15.6%]
- % Reproductive Tillers (Apogee wheat [1]; [3]): 89.60%
- Fresh Weight (Apogee wheat [1]; [3]): 9.18 grams
- Total Dry Weight (Apogee wheat [1]; [3]): 2.12 grams
- Total Spike Number (Apogee wheat [1]; [3]): 3.13
- Total Tiller Number (Apogee wheat [1]; [3]): 2.75
- Δ Canopy Density (Apogee wheat [1]; [3]): 1.52
- Fresh Weight, percent increase over stress control (Apogee wheat [1]; [4]): (−18.8%)
- Total Dry Weight, percent increase over stress control (Apogee wheat [1]; [4]): (−16.9%)
- Total Spike Number, percent increase over stress control (Apogee wheat [1]; [4]): (−7.1%)
- Total Tiller Number, percent increase over stress control (Apogee wheat [1]; [4]): (−12.1%)
- % Reproductive Tillers, percent increase over treatment control (Apogee wheat [1]; [5]): [43.4%]
- Fresh Weight, percent increase over treatment control (Apogee wheat [1]; [5]): [19.2%]
- Total Dry Weight, percent increase over treatment control (Apogee wheat [1]; [5]): [7.6%]
- Total Spike Number, percent increase over treatment control (Apogee wheat [1]; [5]): [−3.7%]
- Total Tiller Number, percent increase over treatment control (Apogee wheat [1]; [5]): [37.5%]
- Δ Canopy Density, percent increase over treatment control (Apogee wheat [1]; [5]): [42.1%]
- % Reproductive Tillers (Apogee wheat [2]; [6]): 63.80%
- Fresh Weight (Apogee wheat [2]; [6]): 17.95 grams
- Total Dry Weight (Apogee wheat [2]; [6]): 4.31 grams
- Total Spike Number (Apogee wheat [2]; [6]): 7
- Total Tiller Number (Apogee wheat [2]; [6]): 4.38
- Δ Canopy Density (Apogee wheat [2]; [6]): 2.65%
- % Reproductive Tillers, percent increase over stress control (Apogee wheat [2]; 100 ppm ACC): (−11.5%)
- Fresh Weight, percent increase over stress control (Apogee wheat [2]; 100 ppm ACC): (4.6%)
- Total Dry Weight, percent increase over stress control (Apogee wheat [2]; 100 ppm ACC): (−5.5%)
- Total Spike Number, percent increase over stress control (Apogee wheat [2]; 100 ppm ACC): (24.3%)
- Total Tiller Number, percent increase over stress control (Apogee wheat [2]; 100 ppm ACC): (9.5%)
- Δ Canopy Density, percent increase over stress control (Apogee wheat [2]; 100 ppm ACC): (3.5%)
- % Reproductive Tillers, percent increase over treatment control (Apogee wheat [2]; 100 ppm ACC): [−0.8%]
- Fresh Weight, percent increase over treatment control (Apogee wheat [2]; 100 ppm ACC): [5.8%]
- Total Dry Weight, percent increase over treatment control (Apogee wheat [2]; 100 ppm ACC): [11.1%]
- Total Spike Number, percent increase over treatment control (Apogee wheat [2]; 100 ppm ACC): [12.0%]
- Total Tiller Number, percent increase over treatment control (Apogee wheat [2]; 100 ppm ACC): [12.9%]
- Δ Canopy Density, percent increase over treatment control (Apogee wheat [2]; 100 ppm ACC): [5.2%]
- % Reproductive Tillers (Apogee wheat [2]; [7]): 63.10%
- Fresh Weight (Apogee wheat [2]; [7]): 16.74 grams
- Total Dry Weight (Apogee wheat [2]; [7]): 4.33 grams
- Total Spike Number (Apogee wheat [2]; [7]): 6.38
- Total Tiller Number (Apogee wheat [2]; [7]): 3.88
- Δ Canopy Density (Apogee wheat [2]; [7]): 2.36%
- % Reproductive Tillers, percent increase over stress control (Apogee wheat [2]; 300 ppm ACC): (−12.5%)
- Fresh Weight, percent increase over stress control (Apogee wheat [2]; 300 ppm ACC): (−2.4%)
- Total Dry Weight, percent increase over stress control (Apogee wheat [2]; 300 ppm ACC): (−5.0%)
- Total Spike Number, percent increase over stress control (Apogee wheat [2]; 300 ppm ACC): (13.3%)
- Total Tiller Number, percent increase over stress control (Apogee wheat [2]; 300 ppm ACC): (−3.0%)
- Δ Canopy Density, percent increase over stress control (Apogee wheat [2]; 300 ppm ACC): (−7.8%)
- % Reproductive Tillers, percent increase over treatment control (Apogee wheat [2]; 300 ppm ACC): [−1.9%]
- Fresh Weight, percent increase over treatment control (Apogee wheat [2]; 300 ppm ACC): [−1.4%]
- Total Dry Weight, percent increase over treatment control (Apogee wheat [2]; 300 ppm ACC): [11.6%]
- Total Spike Number, percent increase over treatment control (Apogee wheat [2]; 300 ppm ACC): [2.1%]
- Total Tiller Number, percent increase over treatment control (Apogee wheat [2]; 300 ppm ACC): [0%]
- Δ Canopy Density, percent increase over treatment control (Apogee wheat [2]; 300 ppm ACC): [−6.3%]

— patent publication US11304419B2, “Methods to induce heat stress tolerance in plants” (Valent BioSciences LLC, priority 2020, dated 2022)
